According to patent US20260184689A1, “PIPERIDINE-SUBSTITUTED BENZOIC ACID COMPOUND, AND PHARMACEUTICAL COMPOSITION AND USE THEREOF” (SHANGHAI YISHENG BIOPHARMACEUTICAL COMPANY LIMITED, priority 2022, published 2026):

Legend:
[1] = tested on: Sheep Anti-Rat Fx1A Serum induced Heymann nephritis; assay: In vivo efficacy assay of passive Heymann nephritis in rats; conditions: male SD rats, intragastric twice a day for 14 days, 5, 20 and 60 mpk; LNP023 60 mpk
Excerpt: Experimental objective: To investigate the ability of the compounds of the present disclosure to improve renal function of Sheep Anti-Rat Fx1A Serum induced Heymann nephritis in rats, including the evaluation of reducing proteinuria level and improving renal tissue damage.
Experimental animals: Male SD rats, 7 to 10 weeks old, weighing between 200 to 300 g.
Urine was collected from rats on D-2 before administration. On D1, the first day of the experiment, animals in the control group (group 1) were administered 5 mL/kg of Sheep Non-Immune serum via a single tail vein injection; animals in the model and administration groups (groups 2 to 6) were administered 5 mL/kg of Sheep Anti-Rat Fx1A Serum via a single tail vein injection.
The rats were treated by intragastric administration twice a day with an interval of 8 hours and a volume of 10 mL/kg. On D1, 1 hour before modeling, animals in groups 1 and 2 were administered blank vehicle 20% PEG400/10% Solutol/70% water; animals in group 3 were administered LNP023 (60 mpk); animals in groups 4 to 6 were administered different concentrations of synthetic compounds (5 mpk, 20 mpk, and 60 mpk); 8 hours after the first administration, each group was administered again with the same dose and volume as the first administration. From D2 to D14, animals in each group were administered different compounds or vehicles for 14 consecutive days (including the first day) according to the dose, volume, administration method, and frequency on D1.
Urine collection: Urine samples were collected from rats on D-2 before administration, and 2 to 4 hours and 4 to 6 hours after the first administration on D4, D6, D8, D11, and D14 after administration, transferred to EP tubes and stored in a refrigerator at −80° C. to −60° C. for the detection of urine protein and creatinine in rats.
Kidney sample collection: All animals were euthanized with CO2 inhalation anesthesia on Day 15, and bilateral kidneys were collected. The left kidney was cut transversely, and the right kidney was cut longitudinally. Half of the transversely cut kidney (left side) and half of the longitudinally cut kidney (right side) were fixed in formalin (placed in the same EP tube).
4. […] Urine total protein (uTP) in rats was detected without dilution; if exceeding the upper detection limit, it was 10-fold diluted (10 μL of sample+90 μL of saline (0.9% saline)) first (Decrease mode); if still exceeding the upper detection limit after 10-fold dilution, it was 100-fold diluted (2 μL of sample+198 μL of saline (0.9% saline)) (Increase mode). Data were read by the analytical instrument HITACHI LST008AS(P). • (2) Kidney pathological scoring: The degree of drug damage to rat kidneys (paraffin sections) was analyzed by HE staining. […]

Complement factor B [2] = molecular target: T1, Complement factor B (Homo sapiens, UniProt P00751); assay: Human complement factor B ELISA assay (CVF-Bb, complement C3 protein); type: biochemical; set-up: followed by the addition of 0.2 μL of CVF-Bb (0.1 μmol/mL); conditions: CVF-Bb incubated with compound 1 hour, then complement C3 protein 37° C. 2 hours, OD 450 nm
Description: The mixture was incubated at room temperature for 1 hour;
Then, 9 μL of the successfully incubated samples were taken and added to the wells of the 96T plate, followed by the addition of 1 μL complement C3 protein, and the reaction was carried out at a constant temperature of 37° C. for 2 hours;
The 9 μL of the aforementioned sample-free liquid was mixed with 1 μL of complement C3 protein as the negative control; • 10 μL of the successfully incubated sample was taken, and the inhibitory concentration was determined by ELISA. The OD value at 450 nm was measured, and a curve was plotted. The obtained data were analyzed using GraphPad Prism 7.0 software, and a Log concentration-inhibition rate curve was generated using a nonlinear regression model to calculate the IC50 value.
Target sequence in this assay (P00751 260-764 limits assumed): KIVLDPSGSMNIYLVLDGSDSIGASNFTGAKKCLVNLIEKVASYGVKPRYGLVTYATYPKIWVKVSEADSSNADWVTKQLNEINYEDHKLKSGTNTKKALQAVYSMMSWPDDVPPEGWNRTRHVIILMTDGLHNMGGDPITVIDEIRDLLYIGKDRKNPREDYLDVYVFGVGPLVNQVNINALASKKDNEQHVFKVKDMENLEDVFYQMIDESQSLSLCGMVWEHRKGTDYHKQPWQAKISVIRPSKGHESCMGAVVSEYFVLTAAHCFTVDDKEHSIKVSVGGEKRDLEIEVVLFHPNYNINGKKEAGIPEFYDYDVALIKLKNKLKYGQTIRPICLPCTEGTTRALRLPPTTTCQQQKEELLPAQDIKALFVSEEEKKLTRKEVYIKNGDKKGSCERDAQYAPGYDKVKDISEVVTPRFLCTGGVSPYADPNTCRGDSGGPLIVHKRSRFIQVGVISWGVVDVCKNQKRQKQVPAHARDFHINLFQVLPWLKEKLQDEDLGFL
Target sequence in this assay (Q91132 23-649 partner limits assumed): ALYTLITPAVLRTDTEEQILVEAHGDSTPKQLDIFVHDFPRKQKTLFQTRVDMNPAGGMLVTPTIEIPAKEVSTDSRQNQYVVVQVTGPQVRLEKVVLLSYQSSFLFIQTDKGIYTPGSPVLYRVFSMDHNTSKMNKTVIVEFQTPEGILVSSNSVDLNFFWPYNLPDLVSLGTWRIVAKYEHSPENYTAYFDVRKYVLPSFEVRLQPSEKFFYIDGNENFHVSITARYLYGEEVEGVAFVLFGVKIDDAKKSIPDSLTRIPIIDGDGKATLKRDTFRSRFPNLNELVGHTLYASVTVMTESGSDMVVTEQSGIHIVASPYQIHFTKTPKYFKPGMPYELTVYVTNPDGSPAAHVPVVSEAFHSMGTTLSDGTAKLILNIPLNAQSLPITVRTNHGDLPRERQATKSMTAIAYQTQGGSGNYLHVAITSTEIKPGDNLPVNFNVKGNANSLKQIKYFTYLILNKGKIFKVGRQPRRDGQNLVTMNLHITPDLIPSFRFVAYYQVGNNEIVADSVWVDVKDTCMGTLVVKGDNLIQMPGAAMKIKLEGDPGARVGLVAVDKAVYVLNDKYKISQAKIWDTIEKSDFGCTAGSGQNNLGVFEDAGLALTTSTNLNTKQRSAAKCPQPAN
Target sequence in this assay (Q91132 733-984 partner limits assumed): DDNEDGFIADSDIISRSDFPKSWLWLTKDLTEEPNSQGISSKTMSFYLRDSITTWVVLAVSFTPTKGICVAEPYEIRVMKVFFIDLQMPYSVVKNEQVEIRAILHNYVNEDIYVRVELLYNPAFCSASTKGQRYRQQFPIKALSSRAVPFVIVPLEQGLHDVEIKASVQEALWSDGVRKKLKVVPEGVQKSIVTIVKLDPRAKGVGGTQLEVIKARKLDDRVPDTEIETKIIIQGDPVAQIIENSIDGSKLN
Target sequence in this assay (Q91132 1264-1642 partner limits assumed): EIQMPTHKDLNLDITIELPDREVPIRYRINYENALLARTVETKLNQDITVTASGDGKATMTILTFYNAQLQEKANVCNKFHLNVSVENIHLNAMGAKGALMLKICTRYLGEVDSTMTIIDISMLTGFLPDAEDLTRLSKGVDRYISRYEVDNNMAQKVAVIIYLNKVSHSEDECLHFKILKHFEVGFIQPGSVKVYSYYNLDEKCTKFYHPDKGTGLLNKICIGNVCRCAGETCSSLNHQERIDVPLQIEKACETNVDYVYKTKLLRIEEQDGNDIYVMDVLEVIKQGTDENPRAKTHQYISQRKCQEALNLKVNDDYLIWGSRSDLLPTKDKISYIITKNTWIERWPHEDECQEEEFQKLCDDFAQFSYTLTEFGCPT

Complement factor B [3] = molecular target: T1, Complement factor B; assay: Optical surface plasmon resonance (SPR) binding affinity assay
Target sequence in this assay (P00751 26-764): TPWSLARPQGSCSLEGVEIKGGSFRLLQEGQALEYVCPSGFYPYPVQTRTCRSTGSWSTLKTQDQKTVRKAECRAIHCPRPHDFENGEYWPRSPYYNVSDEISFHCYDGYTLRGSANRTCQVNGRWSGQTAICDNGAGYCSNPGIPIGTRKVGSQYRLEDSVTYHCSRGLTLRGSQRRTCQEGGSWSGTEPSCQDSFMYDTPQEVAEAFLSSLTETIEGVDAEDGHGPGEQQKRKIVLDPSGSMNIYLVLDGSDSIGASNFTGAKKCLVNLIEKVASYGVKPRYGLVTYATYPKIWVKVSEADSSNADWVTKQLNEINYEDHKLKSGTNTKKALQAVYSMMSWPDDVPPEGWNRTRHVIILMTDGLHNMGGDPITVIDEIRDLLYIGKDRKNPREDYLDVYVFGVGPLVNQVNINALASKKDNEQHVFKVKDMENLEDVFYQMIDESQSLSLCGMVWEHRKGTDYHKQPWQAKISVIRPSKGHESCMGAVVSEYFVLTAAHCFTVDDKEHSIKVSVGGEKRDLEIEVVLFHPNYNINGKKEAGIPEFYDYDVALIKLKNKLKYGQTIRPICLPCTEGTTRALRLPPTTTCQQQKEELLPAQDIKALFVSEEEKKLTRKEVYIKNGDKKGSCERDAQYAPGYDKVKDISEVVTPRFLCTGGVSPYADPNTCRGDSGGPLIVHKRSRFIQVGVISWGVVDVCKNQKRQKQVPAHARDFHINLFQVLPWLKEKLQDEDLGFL
Description: The SPR experiment was conducted at 25° C. using PBS buffer supplemented with 0.05% (v/v) P20 and 5% DMSO as the running buffer. The Biacore 8K instrument from GE Healthcare was employed for analysis. The CM3 chip (GE Healthcare) was activated with 400 mM EDC and 100 mM NHS at a flow rate of 30 μL/min for 420 s.

| SMILES | performance in the kidney disease model through urine and kidney pathology analysis, compared with LNP023 [1] | IC50 (Complement factor B [2]) [nM] | Kd (Complement factor B [3]) [nM] |
| --- | --- | --- | --- |
| CCCC1CCN(C(=O)c2c(OC)cc(C)c3[nH]ccc23)[C@H](c2ccc(C(=O)O)cc2)C1 (mixture of isomers) [Final product of Example 158, 4-((2S)-1-(5-Methoxy-7-methyl-1H-indole-4-carbonyl)-4-propylpiperidin-2-yl)benzoic acid] | performed better | 5 to 30 | 5 to 20 |
| CCCC1CCN(C(=O)c2c(OC)cc(C)c3[nH]ccc23)C(c2ccc(C(=O)O)cc2)C1 (single isomer, unassigned) [Compound 159A] | performed better | 5 to 30 | 5 to 20 |
| CCO[C@H]1CCN(Nc2c(OC)cc(C)c3[nH]ccc23)[C@H](c2ccc(C(=O)O)cc2)C1 [Compound 11 of Example 75, 4-((2S,4S)-4-Ethoxy-1-((5-methoxy-7-methyl-1H-indol-4-yl)amino)piperidin-2-yl)benzoic acid] | performed better | 10 to 30 | 5 to 20 |
